According to the supplement of paper PMC10307832:

What was measured:
Test in all cases: relative viability (nuclei count vs DMSO), 5 days (fraction); higher = more cells survive
NCI-H1437 = test system: NCI-H1437
Summary of the method: (§1)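 The day after seeding in 1536-well plates, lung cancer cell lines were treated by pin tool with a single drug, or with a fixed anchor-drug dose together with five library-drug doses (not always all listed) in √10 steps. After 5 days, a combined fix-and-stain solution (final 0.05% Triton X-100, 1% formaldehyde, 1 ug/ml Hoechst) was added. Nuclei counted on 4× images gave relative viability as treated counts over vehicle counts, reported as the median of duplicate plates.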

NCI-H2087 = test system: NCI-H2087
Summary of the method: as §1

EKVX = test system: EKVX
Summary of the method: as §1

NCI-H1793 = test system: NCI-H1793
Summary of the method: as §1

SK-MES-1 = test system: SK-MES-1
Summary of the method: as §1

COR-L 105 = test system: COR-L 105
Summary of the method: as §1

H3255 = test system: H3255
Summary of the method: as §1

NCI-H2085 = test system: NCI-H2085
Summary of the method: as §1

NCI-H1651 = test system: NCI-H1651
Summary of the method: as §1

SK-LU-1 = test system: SK-LU-1
Summary of the method: as §1

NCI-H1395 = test system: NCI-H1395
Summary of the method: as §1

NCI-H1755 = test system: NCI-H1755
Summary of the method: as §1

Question: With `O=c1[nH]c2ccccc2n1C1CCN(CCCC(c2ccc(F)cc2)c2ccc(F)cc2)CC1` [Pimozide] + O=C(c1cc(Cc2n[nH]c(=O)c3ccccc23)ccc1F)N1CCN(C(=O)C2CC2)CC1 [Olaparib] (partner 8 µM) as the molecule, how does the relative viability (NCI-H1437; first compound 0.08 µM) read?
Answer: Its relative viability is 0.615.

Question: What about the relative viability (NCI-H1437; first compound 0.253 µM) of the same molecule?
Answer: The relative viability was 0.616.

Question: What about the relative viability (NCI-H1437; first compound 0.8 µM) of the same molecule?
Answer: Its relative viability is 0.6.

Question: What about the relative viability (NCI-H1437; first compound 2.53 µM) of the same molecule?
Answer: The relative viability was 0.573.

Question: And the relative viability (NCI-H1437; first compound 8 µM)?
Answer: The relative viability was 0.463.

Question: And the relative viability (NCI-H2087; first compound 0.08 µM)?
Answer: Its relative viability is 0.679.

Question: And the relative viability (NCI-H2087; first compound 0.253 µM)?
Answer: The relative viability was 0.582.

Question: And the relative viability (NCI-H2087; first compound 2.53 µM)?
Answer: Its relative viability is 0.579.

Question: And the relative viability (NCI-H2087; first compound 8 µM)?
Answer: Its relative viability is 0.45.

Question: What about the relative viability (EKVX; first compound 0.253 µM) of the same molecule?
Answer: Its relative viability is 0.783.

Question: What about the relative viability (EKVX; first compound 0.8 µM) of the same molecule?
Answer: The relative viability was 0.823.

Question: And the relative viability (EKVX; first compound 2.53 µM)?
Answer: Its relative viability is 0.854.

Question: What about the relative viability (EKVX; first compound 8 µM) of the same molecule?
Answer: The relative viability was 0.795.

Question: And the relative viability (NCI-H1793; first compound 0.08 µM)?
Answer: The relative viability was 0.762.

Question: And the relative viability (NCI-H1793; first compound 0.253 µM)?
Answer: The relative viability was 0.826.

Question: What about the relative viability (NCI-H1793; first compound 0.8 µM) of the same molecule?
Answer: Its relative viability is 0.875.

Question: What about the relative viability (NCI-H1793; first compound 2.53 µM) of the same molecule?
Answer: Its relative viability is 0.772.

Question: What about the relative viability (NCI-H1793; first compound 8 µM) of the same molecule?
Answer: Its relative viability is 0.706.

Question: What about the relative viability (SK-MES-1; first compound 0.08 µM) of the same molecule?
Answer: The relative viability was 0.715.

Question: What about the relative viability (SK-MES-1; first compound 0.253 µM) of the same molecule?
Answer: The relative viability was 0.686.

Question: And the relative viability (SK-MES-1; first compound 0.8 µM)?
Answer: Its relative viability is 0.749.

Question: What about the relative viability (SK-MES-1; first compound 2.53 µM) of the same molecule?
Answer: Its relative viability is 0.697.

Question: What about the relative viability (SK-MES-1; first compound 8 µM) of the same molecule?
Answer: Its relative viability is 0.619.

Question: What about the relative viability (COR-L 105; first compound 0.08 µM) of the same molecule?
Answer: Its relative viability is 0.664.

Question: What about the relative viability (COR-L 105; first compound 0.253 µM) of the same molecule?
Answer: Its relative viability is 0.659.

Question: And the relative viability (COR-L 105; first compound 0.8 µM)?
Answer: The relative viability was 0.83.

Question: What about the relative viability (COR-L 105; first compound 2.53 µM) of the same molecule?
Answer: The relative viability was 0.696.

Question: And the relative viability (COR-L 105; first compound 8 µM)?
Answer: The relative viability was 0.664.

Question: What about the relative viability (H3255; first compound 0.253 µM) of the same molecule?
Answer: Its relative viability is 0.511.

Question: And the relative viability (H3255; first compound 0.8 µM)?
Answer: Its relative viability is 0.504.

Question: What about the relative viability (H3255; first compound 2.53 µM) of the same molecule?
Answer: Its relative viability is 0.523.

Question: What about the relative viability (H3255; first compound 8 µM) of the same molecule?
Answer: The relative viability was 0.59.

Question: What about the relative viability (NCI-H2085; first compound 0.08 µM) of the same molecule?
Answer: The relative viability was 0.691.

Question: And the relative viability (NCI-H2085; first compound 0.253 µM)?
Answer: Its relative viability is 0.82.

Question: And the relative viability (NCI-H2085; first compound 0.8 µM)?
Answer: Its relative viability is 0.767.

Question: What about the relative viability (NCI-H2085; first compound 2.53 µM) of the same molecule?
Answer: The relative viability was 0.783.

Question: And the relative viability (NCI-H2085; first compound 8 µM)?
Answer: The relative viability was 0.796.

Question: And the relative viability (NCI-H1651; first compound 0.08 µM)?
Answer: Its relative viability is 0.203.

Question: And the relative viability (NCI-H1651; first compound 0.253 µM)?
Answer: Its relative viability is 0.189.

Question: And the relative viability (NCI-H1651; first compound 0.8 µM)?
Answer: Its relative viability is 0.177.

Question: And the relative viability (NCI-H1651; first compound 2.53 µM)?
Answer: The relative viability was 0.182.

Question: What about the relative viability (NCI-H1651; first compound 8 µM) of the same molecule?
Answer: The relative viability was 0.187.

Question: What about the relative viability (SK-LU-1; first compound 0.08 µM) of the same molecule?
Answer: The relative viability was 0.497.

Question: And the relative viability (SK-LU-1; first compound 0.253 µM)?
Answer: Its relative viability is 0.485.

Question: And the relative viability (SK-LU-1; first compound 0.8 µM)?
Answer: The relative viability was 0.487.

Question: And the relative viability (SK-LU-1; first compound 2.53 µM)?
Answer: Its relative viability is 0.372.

Question: And the relative viability (SK-LU-1; first compound 8 µM)?
Answer: Its relative viability is 0.383.

Question: And the relative viability (NCI-H1395; first compound 0.08 µM)?
Answer: Its relative viability is 0.445.

Question: And the relative viability (NCI-H1395; first compound 0.253 µM)?
Answer: Its relative viability is 0.478.

Question: What about the relative viability (NCI-H1395; first compound 0.8 µM) of the same molecule?
Answer: Its relative viability is 0.475.

Question: What about the relative viability (NCI-H1395; first compound 2.53 µM) of the same molecule?
Answer: Its relative viability is 0.456.

Question: What about the relative viability (NCI-H1395; first compound 8 µM) of the same molecule?
Answer: The relative viability was 0.419.

Question: And the relative viability (NCI-H1755; first compound 0.08 µM)?
Answer: The relative viability was 0.879.

Question: And the relative viability (NCI-H1755; first compound 0.253 µM)?
Answer: Its relative viability is 0.842.
